Measured values taken from US9187397B2 (STC.UNM, priority 2004, dated 2015).
“Also recorded” adds a separate entry of the source. Read-outs that look alike come from different tables or passages of the source. Blank lines part the entries; values can stand above or below the molecule they belong to.

Key:
[1] = Total Radical-trapping Anti-oxidant Parameter assay (TRAP assay); set-up: key to TRAP: active as an antioxidant (+); conditions: for activity in the TRAP assay: compared with curcumin; for TRAP: antioxidant activity
Description: This assay is also known as the Total radical-trapping anti-oxidant parameter assay (TRAP assay). For the TRAP assay (Re et al., Free Rad. Biol. […] The turquoise colored reaction was allowed to stabilize for 5 min and the absorbance monitored on a Perkin Elmer UV/Vis Lambda 2S. […] The following FIGS. 2A-2C) show the analogs active in the TRAP assay.

[2] = Ferric Reducing/Anti-oxidant Power assay (FRAP assay); set-up: key to FRAP: active as an antioxidant (+); conditions: for activity in the FRAP assay: compared with curcumin; for FRAP: antioxidant activity
Description: Anti-oxidant activity was also measured in the Ferric reducing/anti-oxidant power assay (FRAP assay) in which the analogs are reacted with a ferric tripyridyltriazine complex. For the FRAP assay (Benzie et al., Meth. Enzymol. 1999, 299, 15-27), the ferric complex was prepared at room temperature by reaction of ferric chloride (16.7 mM) and 2,4,6-tripyridyl-s-triazine (8.33 mM) in acetate buffer (0.25 M) to pH 3.6. The FRAP reagent was used immediately after preparation. […] The reaction was mixed by vortexing, allowed to stabilize for 5 min and the absorbance recorded on a Perkin Elmer UV/Vis Lambda 2S. […] The synthetic analog of α-tocopherol (vitamin E), Trolox, was used as a reference standard (10 μM in ethanol).
The second assay used, the FRAP assay, determines the analogs abilities to reduce a Fe(III) tripyridyltriazine complex to a Fe(II) tripyridyltriazine complex. The following FIGS. 3A-3C) show analogs active in the FRAP assay.

NF-κB = NF-κB luciferase reporter cellular assay (293T/NF-κB-luc, TNFα-stimulated); assay type: cell-based, human; conditions: for inhibition of the activation of NF-κB by TNFα (screen): 10 μM, compared with curcumin; for IC50: Homo sapiens, HEK-293T
Description: The cell line is derived from human 293T embryonic kidney cells expressing the large T antigen containing a chromosomal integration of a luciferase reporter construct regulated by 6 copies of the NF-κB response element (Panomics, Inc.). This stable clonal cell line is obtained by co-transfection of pNF-κB-luc and pTK-hyg containing plasmids followed by the addition of hygromycin (200 μg/ml) to maintain cell selection.
The cell line was grown in a humidified atmosphere at 37° C. in 5% CO2/95% air and maintained in Dulbecco's Modified Eagle's Medium (DMEM-high glucose containing 4 mM glutamine) containing fetal bovine serum (FBS, 10%), sodium pyruvate (1 mM), penicillin (100 units/ml), streptomycin (100 μg/ml) and hygromycin (100 μg/m) to maintain cell selection (Gibco/Invitrogen).
The 293T/NF-κB-luc cells were re-plated 24 hr prior to treatment, into 24-well cell culture plates in media without hygromycin, to prevent it from interfering with the assay. The cells were then allowed to grow and attach, to the wells, for 24 hr in a humidified atmosphere at 37° C. in 5% CO2/95% air. […] The cells then were placed again in a humidified atmosphere at 37° C. in 5% CO2/95% air for 7 hr. Plate wells were gently washed with PBS, pH 7.4, and lysed with passive lysis buffer (1×, 100 μl, Promega). The subsequent chemiluminescent lysates were analyzed with the Luciferase Assay System (Promega) utilizing a TD-20/20 luminometer. The relative light units (photons) were determined by the addition of firefly luciferase substrate (75 μl) to cell lysate (10 μl). The light units were then normalized to the amount of protein in the well (mg/ml) with BCA™ Protein Assay Kit (Pierce) and standardized to percent of control (TNFα).
This assay utilized a commercially available cell line (Panomics 293T-luc cellular assay) developed for screening inhibitors of NF-κB. This cell line is stably transfected with a luciferase reporter controlled by an NF-κB dependent promoter. The cell is stimulated with tumor necrosis factor alpha (TNFα) which activates NF-κB. NF-κB then binds to one of six promoter regions on the cell's DNA leading to the production of a luciferase enzyme. Luciferin is added to the cell lysates and the luciferase enzyme catalyzes a cleavage of luciferin leading to the emission of light.
This cell line was developed by Panomics for screening potential inhibitors of NF-κB. Cells are stimulated with TNF-α to express luciferase, whose activity is monitored in a chemiluminometer.
An NF-κB reporter stable cell line from human 293T embryonic kidney cells (293T/NFκB-luc) (Panomics) was grown in a humidified atmosphere at 37° C. in 5% CO2/95% air. The cells were maintained in Dulbecco's Modified Eagle's Medium (DMEM—high glucose containing 4 mM glutamine) supplemented with 10% fetal bovine serum (FBS), 1 mM sodium pyruvate, 100 units/ml penicillin, 100 μg/m streptomycin and 100 μg/ml hygromycin (Gibco/Invitrogen, Carlsbad, Calif.)) to maintain cell selection. One day prior to treatment, the 293T/NFκB-luc cells were plated into 24-well cell culture plates (Costar) at approximately 70% confluency in the above media without hygromycin. The following day cells were fed fresh media 1 hour prior to treatment. […] The cells were placed again in a humidified atmosphere at 37° C. in 5% CO2/95% air for 7 hours. Plate wells were gently washed with phosphate buffered saline, pH 7.4, and lysed with 1× passive lysis buffer (Promega). The subsequent lysates were analyzed with the Luciferase Assay System (Promega) utilizing a TD-20/20 luminometer (Turner Designs). The firefly luciferase relative light units were normalized to protein (mg/ml) with BCATM Protein Assay Kit (Pierce) and standardized to TNF-α control.

AP-1 = AP-1 luciferase reporter cellular assay (293/AP1-luc, PMA-stimulated); assay type: cell-based, human; conditions: for activity in the AP-1 cellular assay (screen): 15 μM, compared with curcumin; for IC50: Homo sapiens
Description: This cell line is obtained by co-transfection of pAP1-luc and pTK-hyg containing plasmids followed by the addition of hygromycin (200 μg/ml) to maintain cell selection.
After 24 hr, the cells had reached approximately 60% confluency. […] Plate wells were gently washed with PBS, pH 7.4, and lysed with passive lysis buffer (1×, 100 μl, Promega). The subsequent chemiluminescent lysates were analyzed with the Luciferase Assay System (Promega) utilizing a TD-20/20 luminometer. The relative light units (photons) were determined by the addition of firefly luciferase substrate (75 μl) to cell lysate (10 μl). The light units were then normalized to the amount of protein in the well (mg/ml) with BCA™ Protein Assay Kit (Pierce) and standardized to percent of control (PMA).
This cell line is stably transfected with a luciferase reporter controlled by an AP-1 dependent promoter. The cell is stimulated with phorbol ester which activates AP-1. AP-1 then binds to one of three promoter regions on the cells DNA leading to the production of a luciferase enzyme. Luciferin is added to the cell lysates and the luciferase enzyme catalyzes a cleavage of luciferin leading to the emission of light.

[3] = inhibition of TNFα-induced NF-κB activation, 293T/NF-κB-luc cells, Table 5, read-out: IC50
[4] = inhibition of TNFα-induced NF-κB activation, Table 10, read-out: NF-κB IC50
[5] = inhibition of PMA-induced AP-1 activation, 293/AP1-luc cells, Table 10, read-out: AP-1 IC50

Compound: O=C(/C=C/c1ccc(O)c(O)c1)/C=C/c1ccc(O)c(O)c1 [20af]
activity in the TRAP assay ([1]; 10 μM in ethanol): more active than curcumin
activity in the FRAP assay ([2]; 10 μM in ethanol): more active than curcumin

inhibition of the activation of NF-κB by TNFα (screen) (NF-κB): activity comparable to curcumin
Compound: O=C(C1OC1c1ccccc1)C1OC1c1ccccc1 (stereo not drawn) [42b]

inhibition of the activation of NF-κB by TNFα (screen) (NF-κB): more active than curcumin
IC50 (NF-κB; [3]): 6.4 µM
IC50 (NF-κB; [4]): 6.4 µM
activity in the AP-1 cellular assay (screen) (AP-1): more active than curcumin
IC50 (AP-1; [5]): 1.4 µM
Compound: COc1ccc(OC)c(/C=C/C(=O)/C=C/c2cc(OC)ccc2OC)c1 [20m]

Compound: CN1C(c2ccccc2)CC(=O)CC1c1ccccc1 (stereo not drawn) [52b]
inhibition of the activation of NF-κB by TNFα (screen) (NF-κB): more active than curcumin; also recorded: activity comparable to curcumin

activity in the AP-1 cellular assay (screen) (AP-1): Active
Compound: CC(=O)C=Cc1ccccc1O [35q]

inhibition of the activation of NF-κB by TNFα (screen) (NF-κB): more active than curcumin
Compound: COc1cc(/C=C/C(C)=O)ccc1O [35a]
activity in the FRAP assay ([2]; 10 μM in ethanol): active

Compound: COc1cc(CCC(=O)C(Cc2ccccc2)=C(O)CCc2ccc(O)c(OC)c2)ccc1O [15a]
activity in the TRAP assay ([1]; 10 μM in ethanol): more active than curcumin

inhibition of the activation of NF-κB by TNFα (screen) (NF-κB): more active than curcumin
activity in the AP-1 cellular assay (screen) (AP-1): more active than curcumin
Compound: O=C(/C=C/c1ccccc1C(F)(F)F)/C=C/c1ccccc1C(F)(F)F [20w]

activity in the AP-1 cellular assay (screen) (AP-1): most active
Compound: COc1cc(/C=C/C(=O)c2ccccc2)ccc1O [48a]
activity in the FRAP assay ([2]; 10 μM in ethanol): active

inhibition of the activation of NF-κB by TNFα (screen) (NF-κB): more active than curcumin
activity in the AP-1 cellular assay (screen) (AP-1): more active than curcumin
Compound: COc1cc(/C=C/C(=O)/C=C/c2cc(OC)cc(OC)c2)cc(OC)c1 [20o]

inhibition of the activation of NF-κB by TNFα (screen) (NF-κB): more active than curcumin
IC50 (NF-κB; [3]): 6.8 µM
IC50 (NF-κB; [4]): 6.7 µM
activity in the AP-1 cellular assay (screen) (AP-1): more active than curcumin
IC50 (AP-1; [5]): 6 µM
Compound: COc1cc(/C=C/C(=O)/C(C)=C(O)/C=C/c2ccc(O)c(OC)c2)ccc1O [6a]
TRAP ([1]; 10 μM in ethanol, Table 5): +
TRAP ([1]; Table 10): +
FRAP ([2]; 10 μM in ethanol, Table 5): +
FRAP ([2]; Table 10): +

Compound: COc1cc(/C=C2\CCC/C(=C\c3ccc(O)c(OC)c3)C2=O)ccc1O [38a]
TRAP ([1]; 10 μM in ethanol, Table 5): +
TRAP ([1]; Table 10): +
FRAP ([2]; 10 μM in ethanol, Table 5): +
FRAP ([2]; Table 10): +
activity in the AP-1 cellular assay (screen) (AP-1): more active than curcumin
IC50 (AP-1; AP1, read-out: AP-1 IC50 (μM)): 7.3 µM

Compound: COc1cc(/C=C/C(=O)/C=C/c2ccc(O)c(OC)c2)ccc1O [20a]
inhibition of the activation of NF-κB by TNFα (screen) (NF-κB): more active than curcumin

IC50 (NF-κB; inhibition of TNF-α-induced NF-κB activation, Panomics 293T/NFκB-luc, second Table 12, read-out: IC50): 6.7 ± 1.2 µM
Compound: COc1cc(/C=C/C(=O)/C(C)=C(O)/C=C/c2ccc(O)c(OC)c2)ccc1O [Compound 2]
